# From patent publication US20180170904A1, “PYRIDIN-3-YL ACETIC ACID DERIVATIVES AS INHIBITORS OF HUMAN IMMUNODEFICIENCY VIRUS REPLICATION” (priority 2015, published 2018)
# System: NL-RLuc virus (recombinant NL4-3 proviral clone with Renilla Luciferase gene)
# Experiment: Inhibition of HIV replication (NL-RLuc reporter virus in MT-2 cells)
# Type: cell-based
# Settings: MT-2 cells infected with NL-RLuc virus, 5 days of incubation, luciferase readout; read-out: Activity
# Excerpt: Inhibition of HIV replication: A recombinant NL-RLuc proviral clone was constructed in which a section of the nef gene from NL4-3 was replaced with the Renilla Luciferase gene. This virus is fully infectious and can undergo multiple cycles of replication in cell culture. In addition, the luciferous reporter provides a simple and easy method for quantitating the extent of virus growth and consequently, the antiviral activity of test compounds. The plasmid pNLRLuc contains the proviral NL-Rluc DNA cloned into pUC18 at the PvuII site. The NL-RLuc virus was prepared by transfection of 293T cells with the plasmid pNLRLuc. Transfections were performed using the LipofectAMINE PLUS kit from Invitrogen (Carlsbad, Calif.) according to the manufacturer and the virus generated was titered in MT-2 cells. For susceptibility analyses, the titrated virus was used to infect MT-2 cells in the presence of compound, and after 5 days of incubation, cells were processed and quantitated for virus growth by the amount of expressed luciferase. Assay media was RPMI 1640 supplemented with 10% heat inactivated fetal bovine serum (FBS), 100 units/ml penicillin G/100 units/ml streptomycin, 10 mM HEPES buffer pH 7.55 and 2 mM L-glutamine. The results from at least 2 experiments were used to calculate the EC50 values. Luciferase was quantitated using the Dual Luciferase kit from Promega (Madison, Wis.). Susceptibility of viruses to compounds was determined by incubation in the presence of serial dilutions of the compound. The 50% effective concentration (EC50) was calculated by using the exponential form of the median effect equation where (Fa)=1/[1+(ED50/drug conc.)^m] (Johnson V A, Byington R T. Infectivity Assay. In Techniques in HIV Research. ed. Aldovini A, Walker B D. 71-76. New York: Stockton Press.1990). Activity equal to A refers to a compound having an EC50≤100 nM, while B and C denote compounds having an EC50 between 100 nM and 1 uM (B) or >1 uM (C).
row,Compound,EC50 [µM]
1,"(S)-2-(tert-Butoxy)-2-(4-(4,4-dimethylpiperidin-1-yl)-5-(3-(1-(4-fluorobenzyl)-1H-tetrazol-5-yl)phenyl)-2,6-dimethylpyridin-3-yl)acetic acid and/or (S)-2-(tert-Butoxy)-2-(4-(4,4-dimethylpiperidin-1-yl)-5-(3-(2-(4-fluorobenzyl)-2H-tetrazol-5-yl)phenyl)-2,6-dimethylpyridin-3-yl)acetic acid [Example 87]",< 0.1

# Same assay, conditions: Renilla, NL43, 120 h, read-out: Activity
row,Compound,EC50 [µM]
1,"Cc1nc(C)c([C@H](OC(C)(C)C)C(=O)O)c(N2CCC(C)(C)CC2)c1-c1ccc(C(=O)NC2CC2)cc1 [Example 43, (S)-2-(tert-Butoxy)-2-(5-(4-(cyclopropylcarbamoyl)phenyl)-4-(4,4-dimethylpiperidin-1-yl)-2,6-dimethylpyridin-3-yl)acetic acid]",< 0.1
2,"Cc1nc(C)c([C@H](OC(C)(C)C)C(=O)O)c(N2CCC(C)CC2)c1-c1ccc(C(=O)NCc2ccccc2)cc1 [Example 58, (S)-2-(5-(4-(Benzylcarbamoyl)phenyl)-2,6-dimethyl-4-(4-methylpiperidin-1-yl)pyridin-3-yl)-2-(tert-butoxy)acetic acid]",< 0.1
3,"Cc1nc(C)c([C@H](OC(C)(C)C)C(=O)O)c(N2CCC(C)(C)CC2)c1-c1ccc(NC(=O)Cc2ccc(F)cc2)cc1 [Example 72, (S)-2-(tert-Butoxy)-2-(4-(4,4-dimethylpiperidin-1-yl)-5-(4-(2-(4-fluorophenyl)acetamido)phenyl)-2,6-dimethylpyridin-3-yl)acetic acid]",< 0.1
4,"Cc1nc(C)c([C@H](OC(C)(C)C)C(=O)O)c(N2CCC(C)(C)CC2)c1-c1ccc(CCc2ccc(F)cc2)cc1 [Example 85, (S)-2-(tert-Butoxy)-2-(4-(4,4-dimethylpiperidin-1-yl)-5-(4-(4-fluorophenethyl)-phenyl)-2,6-dimethylpyridin-3-yl)acetic acid]",< 0.1
5,"Cc1nc(C)c([C@H](OC(C)(C)C)C(=O)O)c(N2CCC(C)(C)CC2)c1-c1ccc(CC#N)cc1 [Example 48, (S)-2-(tert-Butoxy)-2-(5-(4-(cyanomethyl)phenyl)-4-(4,4-dimethylpiperidin-1-yl)-2,6-dimethylpyridin-3-yl)acetic acid]",0.1 to 1
6,"CC(=O)N(CCc1ccc(F)cc1)c1ccc(-c2c(C)nc(C)c([C@H](OC(C)(C)C)C(=O)O)c2N2CCC(C)(C)CC2)cc1 [Example 75, (S)-2-(tert-Butoxy)-2-(4-(4,4-dimethylpiperidin-1-yl)-5-(4-(N-(4-fluorophenethyl)acetamido)phenyl)-2,6-dimethylpyridin-3-yl)acetic acid]",< 0.1
7,"Cc1nc(C)c([C@H](OC(C)(C)C)C(=O)O)c(N2CC(C(C)C)C2)c1-c1ccc(C(=O)NCc2ccccc2)cc1 [Example 59, (S)-2-(5-(4-(Benzylcarbamoyl)phenyl)-4-(3-isopropylazetidin-1-yl)-2,6-dimethylpyridin-3-yl)-2-(tert-butoxy)acetic acid]",> 1
8,"Cc1nc(C)c([C@H](OC(C)(C)C)C(=O)O)c(N2CCC(C)(C)CC2)c1-c1ccc(-c2ncc(-c3ccc(F)cc3)o2)cc1 [Example 5, (S)-2-(tert-Butoxy)-2-(4-(4,4-dimethylpiperidin-1-yl)-5-(4-(5-(4-fluorophenyl)oxazol-2-yl)phenyl)-2,6-dimethylpyridin-3-yl)acetic acid]",< 0.1
9,"Cc1nc(C)c([C@H](OC(C)(C)C)C(=O)O)c(N2CCC(C)(C)CC2)c1-c1ccc(C(=O)NC(c2ccccc2)C(F)(F)F)cc1 (stereo partly drawn) [Example 88, (2S)-2-(tert-Butoxy)-2-(4-(4,4-dimethylpiperidin-1-yl)-2,6-dimethyl-5-(4-((2,2,2-trifluoro-1-phenylethyl)carbamoyl)phenyl)pyridin-3-yl)acetic acid]",< 0.1
10,"Cc1nc(C)c([C@H](OC(C)(C)C)C(=O)O)c(N2CCC(Cc3ccccc3)CC2)c1-c1ccc(C(=O)NCc2ccccc2)cc1 [Example 64, (S)-2-(5-(4-(Benzylcarbamoyl)phenyl)-4-(4-benzylpiperidin-1-yl)-2,6-dimethylpyridin-3-yl)-2-(tert-butoxy)acetic acid]",0.1 to 1
11,"CC(C)=C1CCN(c2c(-c3ccc(C(=O)NCc4ccccc4)cc3)c(C)nc(C)c2[C@H](OC(C)(C)C)C(=O)O)CC1 [Example 63, (S)-2-(5-(4-(Benzylcarbamoyl)phenyl)-2,6-dimethyl-4-(4-(propan-2-ylidene)piperidin-1-yl)pyridin-3-yl)-2-(tert-butoxy)acetic acid]",0.1 to 1
12,"Cc1nc(C)c([C@H](OC(C)(C)C)C(=O)O)c(N2CCC(C)(C)CC2)c1-c1ccc(C(=O)CCc2ccc(F)cc2)cc1 [Example 50, (S)-2-(tert-Butoxy)-2-(4-(4,4-dimethylpiperidin-1-yl)-5-(4-(3-(4-fluorophenyl)propanoyl)phenyl)-2,6-dimethylpyridin-3-yl)acetic acid]",< 0.1
13,"Cc1nc(C)c([C@H](OC(C)(C)C)C(=O)O)c(N2CCC(C)(C)CC2)c1-c1ccc(S(=O)(CCc2ccc(F)cc2)=NC(=O)OC(C)(C)C)cc1 (stereo partly drawn) [Example 81, (2S)-2-(tert-Butoxy)-2-(5-(4-(N-(tert-butoxycarbonyl)-2-(4-fluorophenyl)ethylsulfonimidoyl)phenyl)-4-(4,4-dimethylpiperidin-1-yl)-2,6-dimethylpyridin-3-yl)acetic acid]",< 0.1
14,"COc1cccc(-c2ccc(-c3c(C)nc(C)c([C@H](OC(C)(C)C)C(=O)O)c3N3CCC(C)(C)CC3)cc2)c1 [Example 21, (S)-2-(tert-Butoxy)-2-(4-(4,4-dimethylpiperidin-1-yl)-5-(3′-methoxy-[1,1′-biphenyl]-4-yl)-2,6-dimethylpyridin-3-yl)acetic acid]",< 0.1
15,"CCc1ccc(-c2ccc(-c3c(C)nc(C)c([C@H](OC(C)(C)C)C(=O)O)c3N3CCC(C)(C)CC3)cc2)cc1 [Example 12, (S)-2-(tert-Butoxy)-2-(4-(4,4-dimethylpiperidin-1-yl)-5-(4′-ethyl-[1,1′-biphenyl]-4-yl)-2,6-dimethylpyridin-3-yl)acetic acid]",0.1 to 1
16,"Cc1nc(C)c([C@H](OC(C)(C)C)C(=O)O)c(N2CCC(C)(C)CC2)c1-c1ccc(S(=O)(=O)CCc2ccc(F)cc2)cc1 [Example 79, (S)-2-(tert-Butoxy)-2-(4-(4,4-dimethylpiperidin-1-yl)-5-(4-((4-fluorophenethyl)sulfonyl)phenyl)-2,6-dimethylpyridin-3-yl)acetic acid]",< 0.1
17,"Cc1nc(C)c([C@H](OC(C)(C)C)C(=O)O)c(N2CCC(C)(C)CC2)c1-c1ccc(CC(C)C)cc1 [Example 20, (S)-2-(tert-Butoxy)-2-(4-(4,4-dimethylpiperidin-1-yl)-5-(4-isobutylphenyl)-2,6-dimethylpyridin-3-yl)acetic acid]",< 0.1
18,"Cc1nc(C)c([C@H](OC(C)(C)C)C(=O)O)c(N2CCC(C)(C)CC2)c1-c1cccc(C(C)C)c1 [Example 40, (S)-2-(tert-Butoxy)-2-(4-(4,4-dimethylpiperidin-1-yl)-5-(3-isopropylphenyl)-2,6-dimethylpyridin-3-yl)acetic acid]",< 0.1
19,"Cc1nc(C)c([C@H](OC(C)(C)C)C(=O)O)c(N2CCC(C)(C#N)CC2)c1-c1ccc(C(=O)NCc2ccccc2)cc1 [Example 61, (S)-2-(5-(4-(Benzylcarbamoyl)phenyl)-4-(4-cyano-4-methylpiperidin-1-yl)-2,6-dimethylpyridin-3-yl)-2-(tert-butoxy)acetic acid]",0.1 to 1

# Same assay, conditions: Renilla, NL43, 120 h, read-out: EC50 μM
row,Compound,EC50 [µM]
1,"Cc1nc(C)c([C@H](OC(C)(C)C)C(=O)O)c(N2CCC(C)(C)CC2)c1-c1ccc(CC#N)cc1 [Example 48, (S)-2-(tert-Butoxy)-2-(5-(4-(cyanomethyl)phenyl)-4-(4,4-dimethylpiperidin-1-yl)-2,6-dimethylpyridin-3-yl)acetic acid]",0.109
2,"Cc1nc(C)c([C@H](OC(C)(C)C)C(=O)O)c(N2CCC(C)(C)CC2)c1-c1ccc(CC(C)C)cc1 [Example 20, (S)-2-(tert-Butoxy)-2-(4-(4,4-dimethylpiperidin-1-yl)-5-(4-isobutylphenyl)-2,6-dimethylpyridin-3-yl)acetic acid]",0.161
